Laboratory results taken from patent publication US20260022143A1, “Cyclic Peptide Inhibitors of IL-23” (JANSSEN PHARMACEUTICA NV, priority 2022, published 2026).
Read-outs that look alike come from different tables or passages of the source. Positions of bridges follow the written chain, without caps; N, C: chain ends. Non-standard residues stand in square brackets, D forms with d. Residues, ends and D or L forms follow the SMILES beside them. *: point of attachment. Me3N+(CH2)2O(CH2)2O(CH2)2CO = C[N+](C)(C)CCOCCOCCC(=O)*; CH2CH2OCH2CH2OCH2CH2NMe3+ = C[N+](C)(C)CCOCCOCC*; Trp(7-Me) = Cc1cccc2c(C[C@H](N)C(=O)O)c[nH]c12; 2Nal = N[C@@H](Cc1ccc2ccccc2c1)C(=O)O; AEF = NCCOc1ccc(C[C@H](N)C(=O)O)cc1; 3Pal = N[C@@H](Cc1cccnc1)C(=O)O; Lys(Me) = CNCCCC[C@H](N)C(=O)O; Pen = CC(C)(S)[C@H](N)C(=O)O; Thp = NC1(C(=O)O)CCOCC1; Sar = CNCC(=O)O

Key:
IL-23R = biological target: T1, IL-23R (Homo sapiens, UniProt Q5VWK5); experiment: IL23R Reporter Assay; format: cell-based; details: HEK293 cells containing IL-23R, IL-12RP1 and STAT-inducible firefly luciferase reporter; 10 ng/mL IL-23 (EC90); 5 h at 37° C.; read-out: IL23R Reporter Assay
T1 construct: host or cells: HEK293
T1 sequence (Q5VWK5 24-629): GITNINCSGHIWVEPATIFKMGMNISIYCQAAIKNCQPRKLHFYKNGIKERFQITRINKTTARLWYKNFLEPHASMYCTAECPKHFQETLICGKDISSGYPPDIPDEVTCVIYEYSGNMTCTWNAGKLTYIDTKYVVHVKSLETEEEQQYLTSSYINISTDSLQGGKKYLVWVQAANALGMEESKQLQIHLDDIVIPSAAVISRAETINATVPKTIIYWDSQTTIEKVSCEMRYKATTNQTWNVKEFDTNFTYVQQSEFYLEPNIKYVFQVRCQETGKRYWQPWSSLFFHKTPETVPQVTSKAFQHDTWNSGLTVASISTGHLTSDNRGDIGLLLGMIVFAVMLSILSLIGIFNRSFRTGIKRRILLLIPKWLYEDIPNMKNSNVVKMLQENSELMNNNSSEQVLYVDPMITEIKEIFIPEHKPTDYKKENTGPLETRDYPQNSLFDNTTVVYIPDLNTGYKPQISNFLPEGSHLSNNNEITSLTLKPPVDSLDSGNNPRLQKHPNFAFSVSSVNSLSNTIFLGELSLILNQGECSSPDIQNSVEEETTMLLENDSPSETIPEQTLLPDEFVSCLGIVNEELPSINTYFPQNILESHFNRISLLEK

[1] = biological target: T2, interleukin-23 (IL-23) receptor (Homo sapiens, UniProt Q5VWK5); experiment: PBMC pSTAT3 assay; format: cell-based
T2 construct: Cryopreserved peripheral blood mononuclear cells (PBMCs) from healthy donors were thawed; endogenous in cells; host or cells: cryopreserved PBMCs from healthy donors, expanded 4 days on anti-CD3 with IL-1
T2 sequence (Q5VWK5 24-629): T1 sequence (Q5VWK5 24-629)
Procedure: Cryopreserved peripheral blood mononuclear cells (PBMCs) from healthy donors were thawed and washed twice in ImmunoCult-XF T cell expansion medium (XF-TCEM) supplemented with CTL anti-aggregate wash. The cells were counted, resuspended at 2×10^5 cells per mL XF-TCEM supplemented with penicillin/streptomycin and 100 ng/mL IL-1 (BioLegend, 579404), and cultured in tissue culture flasks coated with anti-CD3 (eBioscience, 16-0037-85 or BD Pharmingen, 555329) at 37° C. in 5% CO2. On day 4 of culture, PBMCs were collected, washed twice in RPMI-1640 supplemented with 0.1% BSA (RPMI-BSA), and incubated in RPMI-BSA in upright tissue culture flasks for 4 hours at 37° C. in 5% CO2. Following this ‘starvation,’ a total of 6×10^4 cells in […] RPMI-BSA was transferred into each well of a 384-well plate pre-spotted with peptide or DMSO. The cells were incubated for 30 minutes prior to the addition of IL-23 at a final concentration of 5 ng/mL. The cells were stimulated with cytokine for 30 minutes at 37° C. in 5% CO2, transferred onto ice for 10 minutes, and lysed. Cell lysates were stored at −80° C. until phosphorylated STAT3 was measured using the phospho-STAT panel kit (Meso Scale Discovery, K15202D).

[2] = Exposed Polar Surface Area (EPSA); format: physicochemical; details: SFC on Chirex 3014 column, sample 1 mM DMSO stock
In short: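 Retention-based polarity: supercritical CO2 with 20 mM ammonium formate in MeOH (5–60%, 20%/min), Chirex 3014 column, 35 °C. Calibrated against 8 standards to give EPSA (Å^2); each sample measured twice.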

[3] = disulfide bond, 20-membered ring

Row | Molecule | IC50 (IL-23R) [µM] | IC50 [1] [nM] | EPSA ([2]; read-out: EPSA) [A^2] | further results
1 | CC(=O)N(C)CCCC[C@@H]1NC(=O)[C@H](Cc2c[nH]c3c(C)cccc23)NC(=O)[C@H]([C@@H](C)O)NC(=O)[C@H](CC(=O)N(C)C)NC(=O)[C@@H](NC(=O)CCOCCOCC[N+](C)(C)C)C(C)(C)SSC(C)(C)[C@@H](C(=O)N[C@@H](Cc2ccc(OCCOCCOCC[N+](C)(C)C)cc2)C(=O)N[C@@H](Cc2ccc3ccccc3c2)C(=O)NC2(C(=O)N[C@@H](CCCCN(C)C(C)=O)C(=O)N[C@@H](CC(N)=O)C(=O)N[C@@H](Cc3cccnc3)C(=O)N(C)CC(=O)N(C)C)CCOCC2)NC1=O [compound 181, cPEG3aCO-Pen(3)-N(N(Me)2)-T-7MeW-K(NMeAc)-Pen(3)-APEG3F-2Nal-THP-K(NMeAc)-N-3Pya-Sar-CON(Me)2] ({Me3N+(CH2)2O(CH2)2O(CH2)2CO}-[Pen]D(NMe2)T[Trp(7-Me)][Lys(Me)](Ac)[Pen]Y(CH2CH2OCH2CH2OCH2CH2NMe3+)[2Nal][Thp][Lys(Me)](Ac)N[3Pal][Sar]-NMe2; disulfide 1-6) | 0.002 | 0.037 | 136 | 
2 | cPEG5aCO-Pen(3)-N(N(Me)2)-T-7MeW-Dab(NMecPEG5a)-Pen(3)-AEF-2Nal-THP-E-N-3Pya-Sar-CON(Me)2 |  |  |  | ring closure, yield after HPLC ([3]; I2/AcOH, MeCN/H2O, 2.05 mM): 10%
3 | MeCO-k(Me)3-Pen(3)-N(N(Me)2)-T-7MeW-K(NMeAc)-Pen(3)-AEF(N(Me)2)-2Nal-THP-E-N-3Pya-Sar-CON(Me)2 |  |  |  | ring closure, yield after HPLC ([3]; I2/AcOH, MeCN/H2O, […]): 13.4%
4 | CC(=O)NCCCC[C@H](NC(=O)C1(NC(=O)[C@H](Cc2ccc3ccccc3c2)NC(=O)[C@H](Cc2ccc(OCCN)cc2)NC(=O)[C@H]2NC(=O)[C@H](CCCCN(C)C(C)=O)NC(=O)[C@H](Cc3c[nH]c4c(C)cccc34)NC(=O)[C@H]([C@@H](C)O)NC(=O)[C@H](CC(N)=O)NC(=O)[C@@H](NC(C)=O)C(C)(C)SSC2(C)C)CCOCC1)C(=O)N[C@@H](CC(N)=O)C(=O)N[C@@H](Cc1cccnc1)C(=O)N(C)CC(N)=O [SEQ ID 57] (Ac-[Pen]NT[Trp(7-Me)][Lys(Me)](Ac)[Pen][AEF][2Nal][Thp]K(Ac)N[3Pal][Sar]-NH2; disulfide 1-6) | ~6.29 | 0.0076 | 166 | EPSA ([2]; listed as 1): 179.2 Å^2
5 | CF3CO-Pen(3)-N(N(Me)2)-T-7MeW-K(NMeAc)-Pen(3)-AEF-2Nal-THP-K(NMeAc)-N-3Pya-Sar-CON(Me)2 |  |  |  | ring closure, yield after HPLC ([3]; I2/MeOH, 20% MeCN/H2O, 0.56 mM): 12.1%
